Results on 25 molecules are retold here after patent US9365508B2, “Aroyl thiourea derivatives” (University Court of the University of St Andrews, priority 2009, dated 2016).

Where a name gives a salt, the structure may show the parent alone.

The target of assay [1] is SIRT2 (Homo sapiens (Human), UniProt Q8IXJ6). The assay can be described thus: SIRT2 inhibition assay (Fluor de Lys fluorescence-based assay kit). It counts as biochemical. To be noted: human recombinant enzyme; for inhibition at 60 µM: 60 μM compound, read-out: SirT2 (% inhib at 60 μM). Here is the method:
(§1) SIRT1 and SIRT2 Inhibition Assays
(§2) All compounds were tested for inhibition of SIRT1 and SIRT2 using human recombinant enzymes available in the Fluor de Lys fluorescence-based assay kit (BIOMOL, AK555, AK556). All other required reagents were provided in the kit which was stored at −78° C. Before use, small aliquots of each enzyme (2-3 μL) were prepared, snap frozen in liquid nitrogen and stored at −78° C. Fresh dilutions of compounds were prepared in DMSO and further diluted in assay buffer. NAD^+ (12.5 […] at 4 mM) and Fluor de Lys SIRT1 or SIRT2 (12.5 μL at 100 μM) in assay buffer were added to a white 96 well plate, followed by compound (10 μL) and lastly enzyme (15 μL, 0.07 U/μL or SIRT1 and 0.3 U/μL for SIRT2). After incubation for 1 h at 37° C. a developer solution (50 μL) was added to each reaction. The developer solution contained 38 μL buffer, 10 μL developer and 2 μL nicotinamide (50 mM) per reaction. The plate was then incubated for 45 min at rt and then read using a Spectra Max Gemini fluorimeter with an excitation wavelength of 355 nm and an emission wavelength of 460 nm. SigmaPlot software was used to generate fit curves for raw plots and the equation for each curve was used to calculate IC50 data.

Assay [2] addresses SIRT1 (Homo sapiens (Human), UniProt Q96EB6). Nature of the assay: SIRT1 inhibition assay (Fluor de Lys fluorescence-based assay kit). It is filed as biochemical. Particulars: human recombinant enzyme; for inhibition at 60 µM: 60 μM compound, read-out: SirT1 (% inhib at 60 μM). Here is the method:
as §1, §2

Chain of SIRT1 (Q96EB6 whole entry): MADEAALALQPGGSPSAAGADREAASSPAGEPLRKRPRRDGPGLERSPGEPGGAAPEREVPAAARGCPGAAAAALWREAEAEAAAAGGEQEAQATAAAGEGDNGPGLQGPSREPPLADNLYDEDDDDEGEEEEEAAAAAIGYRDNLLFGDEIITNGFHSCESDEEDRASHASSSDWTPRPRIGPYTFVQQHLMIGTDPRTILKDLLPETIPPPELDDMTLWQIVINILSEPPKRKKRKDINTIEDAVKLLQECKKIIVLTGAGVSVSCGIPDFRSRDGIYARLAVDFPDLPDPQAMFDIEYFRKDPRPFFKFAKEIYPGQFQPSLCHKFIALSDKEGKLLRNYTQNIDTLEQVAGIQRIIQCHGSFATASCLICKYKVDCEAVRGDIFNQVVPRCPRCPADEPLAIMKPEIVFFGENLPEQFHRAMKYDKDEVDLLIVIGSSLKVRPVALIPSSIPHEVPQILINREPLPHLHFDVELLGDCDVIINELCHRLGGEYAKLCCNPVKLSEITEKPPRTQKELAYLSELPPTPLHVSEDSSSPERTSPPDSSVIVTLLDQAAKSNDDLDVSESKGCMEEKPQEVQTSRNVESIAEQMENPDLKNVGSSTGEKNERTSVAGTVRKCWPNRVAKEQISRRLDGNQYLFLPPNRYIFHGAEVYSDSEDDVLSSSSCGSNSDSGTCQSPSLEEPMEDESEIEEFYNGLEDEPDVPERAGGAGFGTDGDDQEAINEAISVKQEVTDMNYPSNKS
Chain of SIRT2 (Q8IXJ6 whole entry): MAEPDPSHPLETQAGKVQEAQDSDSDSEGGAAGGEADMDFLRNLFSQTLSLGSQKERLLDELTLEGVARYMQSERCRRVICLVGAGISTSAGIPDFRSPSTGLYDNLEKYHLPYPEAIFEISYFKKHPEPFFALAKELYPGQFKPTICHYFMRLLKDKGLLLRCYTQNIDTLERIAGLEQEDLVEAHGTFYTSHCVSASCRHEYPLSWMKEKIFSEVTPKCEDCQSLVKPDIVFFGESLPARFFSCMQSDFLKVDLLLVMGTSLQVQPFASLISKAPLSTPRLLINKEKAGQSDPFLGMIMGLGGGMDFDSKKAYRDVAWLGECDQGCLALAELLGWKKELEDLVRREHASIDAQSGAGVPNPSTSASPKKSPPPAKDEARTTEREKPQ

Regarding `CN(C)CCCCC(=O)Nc1ccc(NC(=S)NC(=O)c2ccc(Cl)cc2)cc1` [318a A1, 5-Dimethylamino-pentanoic acid {4-[3-(4-chloro-benzoyl)-thioureido]-phenyl}-amide hydrochloride], the inhibition at 60 µM in assay [1] was 61%; in assay [2], 53%.

On to `Cc1ccc(C(=O)NC(=S)Nc2ccc(NC(=O)CCCCN(C)C)cc2)cc1` [318a A2, 5-Dimethylamino-pentanoic acid {4-[3-(4-methyl-benzoyl)-thioureido]-phenyl}-amide hydrochloride], for which the results for the inhibition at 60 µM in assay [1] and in assay [2] were 40% and 47%, respectively.

With `COc1ccc(C(=O)NC(=S)Nc2ccc(NC(=O)CCCCN(C)C)cc2)cc1` [318a A3, 5-Dimethylamino-pentanoic acid {4-[3-(4-methoxy-benzoyl)-thioureido]-phenyl}-amide hydrochloride], the inhibition at 60 µM in assay [1] amounted to 51%; in assay [2], 48%.

Regarding `CN(C)CCCCC(=O)Nc1ccc(NC(=S)NC(=O)c2ccc(Cl)c(Cl)c2)cc1` [Compound 311d, 5-Dimethylamino-pentanoic acid {4-[3-(3,4-dichloro-benzoyl)-thioureido]-phenyl}-amide hydrochloride], in assay [1], the inhibition at 60 µM was 68% and the half-inhibitory concentration (IC50) turned out to be 31.9 ± 6.4 µM. Moreover, in assay [2], the inhibition at 60 µM stood at 8% and the IC50 was determined as 70.9 ± 4.2 µM.

As for `Cc1ccc(C(=O)NC(=S)Nc2ccc(NC(=O)CCCCN(C)C)cc2)cc1Br` [Compound 330a, 5-Dimethylamino-pentanoic acid {4-[3-(3-bromo-4-methyl-benzoyl)-thioureido]-phenyl}-amide hydrochloride], the inhibition at 60 µM turned out to be 80.2% in assay [1] and 33% in assay [2]. In addition, the IC50 was found to be 31.9 ± 1.6 µM in assay [1] and 43.9 ± 7.3 µM in assay [2].

With `CC(C)c1ccc(C(=O)NC(=S)Nc2ccc(NC(=O)CCCCN(C)C)cc2)cc1` [Compound 331a, 5-Dimethylamino-pentanoic acid {4-[3-(4-isopropyl-benzoyl)-thioureido]-phenyl}-amide hydrochloride], in assay [1], the inhibition at 60 µM was found to be 78.4% and the IC50 was found to be 32.5 ± 0.07 µM. Besides, in assay [2], the inhibition at 60 µM was determined as 52.9% and the IC50 amounted to 64.8 ± 3.8 µM.

On to `CN(C)CCCCC(=O)Nc1ccc(NC(=S)NC(=O)c2ccc(N(C)C)cc2)cc1` [Compound 332a, 5-Dimethylamino-pentanoic acid {4-[3-(4-dimethylamino-benzoyl)-thioureido]-phenyl}-amide hydrochloride], for which the inhibition at 60 µM in assay [1] was found to be 61.5%; in assay [2], 55.7%.

Regarding `CCCCCc1ccc(C(=O)NC(=S)Nc2ccc(NC(=O)CCCCN(C)C)cc2)cc1` [Compound 345a, 5-Dimethylamino-pentanoic acid {4-[3-(4-pentyl-benzoyl)-thioureido]-phenyl}-amide hydrochloride], the inhibition at 60 µM is 85.4% in assay [1] and 73% in assay [2].

For `CCCCc1ccc(C(=O)NC(=S)Nc2ccc(NC(=O)CCCCN(C)C)cc2)cc1` [Compound 345b, 5-Dimethylamino-pentanoic acid {4-[3-(4-butyl-benzoyl)-thioureido]-phenyl}-amide hydrochloride], the inhibition at 60 µM was determined as 90% in assay [1] and 56.3% in assay [2].

Take `CCCc1ccc(C(=O)NC(=S)Nc2ccc(NC(=O)CCCCN(C)C)cc2)cc1` [Compound 345c, 5-Dimethylamino-pentanoic acid {4-[3-(4-propyl-benzoyl)-thioureido]-phenyl}-amide hydrochloride]: the inhibition at 60 µM in assay [1] was found to be 89%; in assay [2], 82.4%.

`CCc1ccc(C(=O)NC(=S)Nc2ccc(NC(=O)CCCCN(C)C)cc2)cc1` [Compound 345d, 5-Dimethylamino-pentanoic acid {4-[3-(4-ethyl-benzoyl)-thioureido]-phenyl}-amide hydrochloride]: the inhibition at 60 µM in assay [1] was determined as 57.1%; in assay [2], 9.1%.

With `COc1ccc(C(=O)NC(=S)Nc2ccc(NC(=O)CCCCN(C)C)cc2)cc1Cl` [Compound 350a, 5-Dimethylamino-pentanoic acid {4-[3-(3-chloro-4-methoxy-benzoyl)-thioureido]-phenyl}-amide hydrochloride], the inhibition at 60 µM is 37.8% in assay [1] and 9% in assay [2].

In the case of `CN(C)CCCCC(=O)Nc1ccc(NC(=S)NC(=O)c2cc(Cl)cc(Cl)c2)cc1` [Compound 360a, 5-Dimethylamino-pentanoic acid {4-[3-(3,5-dichloro-benzoyl)-thioureido]-phenyl}-amide hydrochloride], the inhibition at 60 µM amounted to 49.9% in assay [1] and 23.3% in assay [2].

With `CN(C)CCCCC(=O)Nc1ccc(NC(=S)NC(=O)c2ccc(C(C)(C)C)c(Br)c2)cc1` [Compound 361a, 5-Dimethylamino-pentanoic acid {4-[3-(3-bromo-4-tert-butyl-benzoyl)-thioureido]-phenyl}-amide hydrochloride], in assay [1], the inhibition at 60 µM is 91.1% and the IC50 was found to be 4.6 ± 0.6 µM. Moreover, in assay [2], the inhibition at 60 µM is 93.5% and the concentration for half-maximal inhibition (IC50) was 18.3 ± 0.3 µM.

As for `COc1c(Br)cc(C(=O)NC(=S)Nc2ccc(NC(=O)CCCCN(C)C)cc2)cc1Br` [Compound 383a, 5-Dimethylamino-pentanoic acid {4-[3-(3,5-dibromo-4-methoxy-benzoyl)-thioureido]-phenyl}-amide hydrochloride], the IC50 came to 14 ± 1.7 µM in assay [1] and 47.2 ± 0.9 µM in assay [2].

As to `CCOc1c(Cl)cc(C(=O)NC(=S)Nc2ccc(NC(=O)CCCCN(C)C)cc2)cc1Cl` [Compound 391a, 5-Dimethylamino-pentanoic acid {4-[3-(3,5-dichloro-4-ethoxy-benzoyl)-thioureido]-phenyl}-amide hydrochloride], in assay [1], the inhibition at 60 µM turned out to be 87.9% and the 50% inhibitory concentration (IC50) turned out to be 3 ± 0.1 µM. In assay [2], the inhibition at 60 µM came out at 81.5% and the half-maximal inhibitory concentration (IC50) was 29.3 ± 3.6 µM.

Turning to `CCCCOc1c(Cl)cc(C(=O)NC(=S)Nc2ccc(NC(=O)CCCCN(C)C)cc2)cc1Cl` [Compound 392a, 5-Dimethylamino-pentanoic acid {4-[3-(4-butoxy-3,5-dichloro-benzoyl)-thioureido]-phenyl}-amide hydrochloride], in assay [1], the inhibition at 60 µM was determined as 96.3% and the IC50 was found to be 0.4 ± 0.4 µM. For the same molecule, in assay [2], the inhibition at 60 µM is 90.4% and the IC50 is 22.5 ± 1.3 µM.

Consider `Cc1ccccc1C(=O)NC(=S)Nc1ccc(NC(=O)CCCCN(C)C)cc1` [Compound A1, 5-Dimethylamino-pentanoic acid {4-[3-(2-methyl-benzoyl)-thioureido]-phenyl}-amide hydrochloride], for which, in assay [1], the inhibition at 60 µM came to 48.5% and the half-maximal inhibitory concentration (IC50) amounted to 80.7 ± 14.4 µM. Besides, in assay [2], the inhibition at 60 µM was determined as 10% and the IC50 was > 90 µM.

In the case of `CN(C)CCCCC(=O)Nc1ccc(NC(=S)NC(=O)c2ccccc2Cl)cc1` [Compound A2, 5-Dimethylamino-pentanoic acid {4-[3-(2-chloro-benzoyl)-thioureido]-phenyl}-amide hydrochloride], the inhibition at 60 µM in assay [1] was found to be 54.3%; in assay [2], 29.3%.

Take `COc1ccccc1C(=O)NC(=S)Nc1ccc(NC(=O)CCCCN(C)C)cc1` [Compound A3, 5-Dimethylamino-pentanoic acid {4-[3-(2-methoxy-benzoyl)-thioureido]-phenyl}-amide hydrochloride]: the inhibition at 60 µM turned out to be 66.8% in assay [1] and 48.7% in assay [2].

`CN(C)CCCCC(=O)Nc1ccc(NC(=S)NC(=O)c2cccc(Cl)c2)cc1` [Compound A5, 5-Dimethylamino-pentanoic acid {4-[3-(3-chloro-benzoyl)-thioureido]-phenyl}-amide hydrochloride]: the inhibition at 60 µM in assay [1] was 57.9%; in assay [2], 29.2%.

For `CN(C)CCCCC(=O)Nc1ccc(NC(=S)NC(=O)c2cccc(Br)c2)cc1` [Compound A6, 5-Dimethylamino-pentanoic acid {4-[3-(3-bromo-benzoyl)-thioureido]-phenyl}-amide hydrochloride], in assay [1], the inhibition at 60 µM was 81% and the half-maximal inhibitory concentration (IC50) turned out to be 21.2 ± 7.2 µM. Further, in assay [2], the inhibition at 60 µM worked out at 70.5% and the 50% inhibitory concentration (IC50) came to 39.9 ± 8.1 µM.

As to `Cc1cccc(C(=O)NC(=S)Nc2ccc(NC(=O)CCCCN(C)C)cc2)c1` [Compound B1, 5-Dimethylamino-pentanoic acid {4-[3-(3-methyl-benzoyl)-thioureido]-phenyl}-amide], the inhibition at 60 µM is 20.9% in assay [1] and 5% in assay [2].

As to `COc1cccc(C(=O)NC(=S)Nc2ccc(NC(=O)CCCCN(C)C)cc2)c1` [Compound B2, 5-Dimethylamino-pentanoic acid {4-[3-(3-methoxy-benzoyl)-thioureido]-phenyl}-amide hydrochloride], the inhibition at 60 µM came to 30.5% in assay [1] and 25.3% in assay [2].

As to `COc1cc(C(=O)NC(=S)Nc2ccc(NC(=O)CCCCN(C)C)cc2)cc(OC)c1OC` [Compound D2, 5-Dimethylamino-pentanoic acid {4-[3-(3,4,5-trimethoxy-benzoyl)-thioureido]-phenyl}-amide hydrochloride], the inhibition at 60 µM in assay [1] worked out at 18%.

For orientation: IC50 means the concentration that gives 50% inhibition.
